Measurements reported in US8158789B2, “Arginine derivatives with NP-I antagonistic activity” (Ark Therapeutics Group Ltd., priority 2006, dated 2012).
pIC50: −log10 of the molar value.

What was measured:
neuropilin-1 (NP-1) = molecular target: T1, neuropilin-1 (NP-1) (Homo sapiens, UniProt O14786); experiment: 125I-VEGF-A165 binding; conditions: assay not given; 125I-VEGF-A165 binding is the only concentration-response binding method described
T1 construct: expressed in transfected cells; host or cells: porcine aortic endothelial cells (PAE/NP-1), hygromycin B selection
Description: Porcine aortic endothelial cells expressing neuropilin-1 (PAE/NP-1) were cultured in Ham's F12 medium containing 10% fetal bovine serum (FBS) and 25 μg/ml hygromycin B. PAE cells expressing KDR (PAE/KDR) were grown in Ham's F12 medium containing 10% FBS and 250 μg/ml […] G418. Human carcinoma cell lines (DU145, A549 and ACHN) were grown in RPMI 1640 medium containing 10% FBS and L-glutamine.
Confluent cells in 24-well plates were washed twice with phosphate-buffered saline (PBS). At 4° C. various concentrations of peptides or peptidomimetics diluted in binding medium (Dulbecco's modified Eagle's medium, 25 mM HEPES pH 7.3 containing 0.1% BSA) were added, followed by addition of 0.1 nM of ^125I-VEGF-A165 (1200-1800 Ci/mmol, GE Healthcare). After 2 h of incubation at 4° C., the medium was aspirated and washed 4 times with cold PBS. The cells were lysed with 0.25 M NaOH, 0.5% SDS solution, and the bound radioactivity of the lysates was measured in a γ counter. Non-specific binding was determined in the presence of 100-fold excess unlabelled VEGF-A165.

A549 cells = experiment: Cell viability (XTT); assay type: cell-based, Human; conditions: concentration of 100 μM
Description: Human carcinoma cell lines (DU145, A549 and ACHN) were grown in RPMI 1640 medium containing 10% FBS and L-glutamine. Cell Viability Cell viability was determined by measurement of conversion of the tetrazolium salt XTT to form formazon dye. Carcinoma cells were seeded at a density of 4×10^3 cells per well in 96-well plates in the absence or presence of NP-1 peptide or peptidomimetic antagonists. After 44 h incubation, XTT labelling reagent mixture (Roche) was added to the cultures and they were incubated for a further 4 h. The formazon production was then measured at A490 nm with a reference wavelength at 595 nm.

T1 sequence (O14786 22-923): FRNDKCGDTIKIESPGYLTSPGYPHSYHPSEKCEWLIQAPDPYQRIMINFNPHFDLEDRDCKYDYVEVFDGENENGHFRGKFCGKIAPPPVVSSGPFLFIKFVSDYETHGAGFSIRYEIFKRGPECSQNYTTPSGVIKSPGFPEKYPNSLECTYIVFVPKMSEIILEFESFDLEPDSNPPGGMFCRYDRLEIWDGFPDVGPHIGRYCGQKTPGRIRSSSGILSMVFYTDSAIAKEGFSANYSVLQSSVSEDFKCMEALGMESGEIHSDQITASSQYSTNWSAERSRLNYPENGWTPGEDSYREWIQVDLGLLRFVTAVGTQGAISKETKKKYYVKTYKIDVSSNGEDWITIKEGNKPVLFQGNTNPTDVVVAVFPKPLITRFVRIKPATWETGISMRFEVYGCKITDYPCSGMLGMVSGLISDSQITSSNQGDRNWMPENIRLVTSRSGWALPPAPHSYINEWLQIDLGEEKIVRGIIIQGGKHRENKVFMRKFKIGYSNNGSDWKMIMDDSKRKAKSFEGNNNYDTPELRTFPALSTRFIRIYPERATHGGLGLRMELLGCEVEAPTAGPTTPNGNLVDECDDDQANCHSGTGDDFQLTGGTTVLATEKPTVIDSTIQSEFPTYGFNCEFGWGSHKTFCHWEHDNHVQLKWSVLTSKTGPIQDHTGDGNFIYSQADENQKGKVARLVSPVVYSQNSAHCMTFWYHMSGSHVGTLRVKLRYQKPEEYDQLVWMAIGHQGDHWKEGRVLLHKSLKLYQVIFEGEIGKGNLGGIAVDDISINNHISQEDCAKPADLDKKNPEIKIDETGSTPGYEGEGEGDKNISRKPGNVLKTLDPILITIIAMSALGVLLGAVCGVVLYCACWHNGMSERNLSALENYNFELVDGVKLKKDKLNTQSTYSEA

pIC50 (neuropilin-1 (NP-1)): > 4.70
Compound: N=C(N)NCCC[C@H](NC(=O)c1sccc1NS(=O)(=O)c1cccc2nsnc12)C(=O)O [EG00229, (S)-2-{[3-(Benzo[1,2,5]thiadiazole-4-sulfonylamino)-thiophene-2-carbonyl]-amino}-5-guanidino-pentanoic acid]
viability of A549 cells (A549 cells): reduced the viability
